Experimental data reported in patent US8586625B2, “Derivatives of taxol and closely related compounds” (priority 2008, dated 2013).
≈ marks a conversion by molar mass, not a printed value. Entries after “also recorded” stand apart in the source; their conditions may differ.

Columns and labels:
A549 lung cancer = assay: MTT proliferation assay, in vitro cytotoxicity; assay type: cell-based; conditions: Homo sapiens, FIG. 3e, read-out: Calculated EC50
Description: (§1) Cancer cells, HeLa, Caco-2, PC3 prostate, CAPAN, A549, SKBR3 were maintained in a humidified atmosphere at 37° C. and gassed with 5% CO2 in air in air. The cells were incubated with various concentrations of paclitaxel and PACLP. The in vitro cytotoxicity of the drugs was measured by a proliferation assay utilizing tetrazolium dye, MTT ([3-(4,5-[…])-2,5 diphenyl tetrazolium bromid). The experiments were carried out with cells in the exponential growth phase.
(§2) Results of these experiments are presented in graphs 3a-3f, indicating the IC50, (the concentration found to inhibit about fifty percent of the growth of the cancer cell lines).

CAPAN = assay: MTT proliferation assay, in vitro cytotoxicity; assay type: cell-based; conditions: 72 h, FIG. 3d, read-out: calculated EC50
Description: as §1, §2

[1] = tested on: Caco-2 carcinoma of the colon; assay: MTT proliferation assay, in vitro cytotoxicity; assay type: cell-based; conditions: Homo sapiens, FIG. 3b, read-out: calculated EC50
Description: as §1, §2

HeLa cell line = assay: MTT proliferation assay, in vitro cytotoxicity; assay type: cell-based; conditions: Homo sapiens, FIG. 3a, read-out: calculated EC50
Description: as §1, §2

PC3 prostate carcinoma = assay: MTT proliferation assay, in vitro cytotoxicity; assay type: cell-based; conditions: FIG. 3c, read-out: calculated EC50
Description: as §1, §2

SKBR3 breast carcinoma = assay: MTT proliferation assay, in vitro cytotoxicity; assay type: cell-based; conditions: Homo sapiens, SK-BR-3, FIG. 3f, read-out: calculated EC50
Description: as §1, §2

[2] = tested on: hepatocyte cell line HepG2; assay: Toxicity on hepatocyte cell line HepG2 (MTT test); assay type: cell-based; conditions: for CD50 (cytotoxic concentration leading to reduction of 50% of the cell number compared to untreated cells): HepG2, 72 h, MTT test
Description: PACLP and paclitaxel were evaluated in vitro using hepatocyte cell line HepG2. Cells were cultured in 96 well plates at a cell density of 20000 cell/well and treated with increasing concentrations of both PACLP and paclitaxel (0-1000 μM) for 72 h. Control cells were treated with an absolute ethanol, diluted in the same way as the tested substances. Cytotoxicity was measured using the MTT test. All experiments were carried out in triplicates and each test was repeated three times.
CD50 (the cytotoxic concentration leading to reduction of 50% of the cell number compared to untreated cells) was at concentration of 5 μM and 100 μM, and 500 μM for paclitaxel, PACLP, and the solvent, respectively.

[3] = tested on: endothelial cells of human (H-1044 EC p7 naïve); assay: Effect on endothelial cell proliferation (cell count); assay type: cell-based; conditions: 48 hours, in words
Description: The test was conducted using endothelial cells of human (H-1044 EC p7 naïve). 70,000 cells were grown in each well. After the cells have adhered for 3 hours, the material (paclitaxel or PACLP) was added to the cells. After 48 hours of cell growth the cells were detached by trypsin and counted. The results are set in.

6 cancer cell lines = assay: In vitro anti-tumor activity on 6 cancer cell lines (overall comparison); assay type: cell-based; conditions: in words
Description: as §1, §2

Balb/c mice = assay: LD50 test using Balb/c mice; assay type: in vivo; conditions: 80-140 mg/kg, observed 4 weeks after injection
Description: Balb/c mice were divided into 9 groups, 8 mice in each group (4 males and 4 females). Group one, the control group, were given 50 μl solvent with 150 μL normal saline. Groups 2, 3, 4 and 5 were given 125, 150, 175, 200 mg/kg of PACLP respectively. Groups 6, 7, 8 and 9 were given 80, 100, 120, 140 mg/kg of paclitaxel respectively. Mice were observed 4 weeks after injection. The results are set in FIG. 6. Most of the animals died within the first week after treatment.

Compound	EC50 (A549 lung cancer)	EC50 (CAPAN)	EC50 [1]	EC50 (HeLa cell line)	EC50 (PC3 prostate carcinoma)	EC50 (SKBR3 breast carcinoma)	CD50 (cytotoxic concentration leading to reduction of 50% of the cell number compared to untreated cells) [2]	cytotoxicity compared to paclitaxel ([2]; hepatocyte cell line HepG2, in words)	cytotoxicity compared to paclitaxel [3]	anti-tumor activity compared to free paclitaxel (6 cancer cell lines)	observation before death (Balb/c mice)
CC(=O)O[C@H]1C(=O)[C@@]2(C)[C@H]([C@H](OC(=O)c3ccccc3)[C@]3(O)C[C@H](OC(=O)[C@H](OC(=O)CCCCC4CCSS4)[C@@H](NC(=O)c4ccccc4)c4ccccc4)C(C)=C1C3(C)C)[C@]1(OC(C)=O)CO[C@@H]1C[C@@H]2O (stereo partly drawn) [PACLP, Paclitaxel-lipoate]	2.5 µg/mL (≈ 2.4 µM)	5 µg/mL (≈ 4.8 µM)	1.5 µg/mL (≈ 1.44 µM)	1.5 µg/mL (≈ 1.44 µM)	3.5 µg/mL (≈ 3.36 µM)	2 µg/mL (≈ 1.92 µM)	100 µM	less cytotoxic	less cytotoxic	greater anti-tumor activity; also recorded: somewhat more effective than paclitaxel	
CC(=O)O[C@H]1C(=O)[C@@]2(C)[C@H]([C@H](OC(=O)c3ccccc3)[C@]3(O)C[C@H](OC(=O)[C@H](O)[C@@H](NC(=O)c4ccccc4)c4ccccc4)C(C)=C1C3(C)C)[C@]1(OC(C)=O)CO[C@@H]1C[C@@H]2O [paclitaxel, reference compound]	5.5 µg/mL (≈ 6.44 µM)	11 µg/mL (≈ 12.9 µM)	9 µg/mL (≈ 10.5 µM)	9 µg/mL (≈ 10.5 µM)	12 µg/mL (≈ 14.1 µM)	19 µg/mL (≈ 22.3 µM)	5 µM				swelling and redness before death
